Data taken from patent US5070210A, “Novel ketenimines as intermediates for insecticides” (ICI Americas Inc., priority 1990, dated 1991).

Legend:
Format in all cases: in vivo
[1] = system: Rice water weevil [Lissorhoptrus oryzophilus (Kuschel)]; assay: Rice water weevil insecticidal test; conditions: topical, μg per weevil; 48 hours
Method: (§1) The compounds in Tables 1 and 2 above were tested for insecticidal activity using the following testing procedures. LC50 values, based on the results of these tests and calculated according to dosage-mortality curves, are expressed in Table 3.
Rice water weevil [Lissorhoptrus oryzophilus (Kuschel)]:
Test compounds were diluted in acetone. Droplets (1 μl) of test solutions were applied to the ventral abdomens of ten female adult weevils. The treated weevils were placed in containers with wet cotton balls and rice foliage. The containers were covered and kept at a temperature of about 25° C. Mortality was recorded after 48 hours. Test concentrations ranged from […] or 2.5 μg per weevil down to that at which 50% mortality occurred. The LC50 values are expressed below in Table 3 under the heading "RWW" in terms of μg of test compound per weevil.

[2] = system: Tobacco Budworm [Heliothis virescens (Fabricius)] larvae; assay: Tobacco budworm contact test; conditions: second-instar larvae, percent in solution, 5 days
Procedure, shortened: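 Cotton cotyledons dipped 2–3 s in compound in 50-50 acetone-water, dried, then infested with 5 second-instar larvae and held 5 days at high humidity. Mortality scored; LC50 from dosage-mortality curves, expressed as percent compound in solution, concentrations from 0.1% downward.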

[3] = system: Housefly [Musca domestica]; assay: Housefly insecticidal test; conditions: μg per 25 female flies; mortality after 48 hours
Procedure, shortened: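 LC50, as μg compound per 25 female flies, comes from dosage-mortality curves with doses from 100 μg downward. Residues were made by evaporating acetone plus 0.01% peanut oil in dishes, onto which 1-2-day-old females were caged; deaths were counted after 48 hours.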

[4] = system: Aster Leafhopper [Macrosteles fascifrens (Stal)]; assay: Aster leafhopper insecticidal test; conditions: adults/nymphs, percent in solution; 48 hours
Procedure, shortened: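 LC50 values, given as percent of test compound in the dip solution, were derived from dosage-mortality curves over concentrations from 0.05% downward. Mortality was counted 48 hours after ten leafhopper adults/nymphs were enclosed on treated seedlings. The seedlings were oats, about 10 cm tall, briefly dipped in 50-50 acetone-water.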

[5] = system: Cabbage Looper [Trichoplusia ni (Hubner)]; assay: Cabbage looper insecticidal test; conditions: second-instar larvae, percent in solution; 3-5 days
Procedure, shortened: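 Squash cotyledons dipped in test solution (acetone-water 50-50, ≤0.1%), dried, offered to 5 second-instar larvae; mortality after 3-5 days gives LC50.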

[6] = system: Beet Armyworm (Spodoptera exigua); assay: Beet armyworm insecticidal test; conditions: second-instar larvae, percent in solution; five days
Procedure, shortened: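 Five second-instar larvae per dish fed on dried sugar beet leaves previously dipped 2–3 s in acetone-water (1:1) test solutions up to 0.1%. Kept at high humidity, with deaths counted after five days; LC50 as % in solution via dosage-mortality curves.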

[7] = system: Tobacco Budworm [Heliothis virescens (Fabricius)] eggs; assay: Tobacco budworm egg test; conditions: 2-day old eggs, percent in solution
Procedure, shortened: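 Step 1: dip 2-day old egg patches in acetone test solutions (top concentration 0.1%). Step 2: hold in dishes with rearing medium at 78° F. Step 3: record mortality after control hatch and feeding.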

[8] = system: Maize weevil [Sitophilus Zeamais (Motschulsky)]; assay: Maize weevil insecticidal test; conditions: adult weevils, percent in solution; 48 hours
Procedure, shortened: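 LC50, in percent of compound in solution, was derived from dosage-mortality curves after 48 h at about 25 °C. Ten adult weevils per container fed on four corn seeds briefly immersed in acetone:water (50:50) solutions of up to 0.01% and dried.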

[9] = system: Black Bean Aphid [Aphis fabae (Scop.)]; assay: Black bean aphid insecticidal test; conditions: percent of test compound in sprayed solution; 48 hours
Method: as §1
Black Bean Aphid [Aphis fabae (Scop.)]:
Nasturtium plants (Tropaeolum sp.) approximately 5 cm tall, were transplanted into sandy loam soil in small cups and infested with 25-50 black bean aphids of mixed ages. Twenty-four hours later they were sprayed to the point of runoff with 50-50 acetone-water solutions of the test compounds. Treated plants were held in the greenhouse and mortality was recorded after 48 hours. Test concentrations ranged from 0.05% downward. The LC-50 value is expressed below in Table 3 under the heading "BBA" in terms of percent of the test compound in the sprayed solution.

| SMILES | LC50, RWW [1] | LC50, TBW, C (TBW-C) [2] | LC50, HF [3] | LC50, LH [4] | LC50, CL [5] | LC50, BAW [6] | LC50, TBW, E (TBW-E) [7] | LC50, MW [8] | LC50, BBA [9] |
| --- | --- | --- | --- | --- | --- | --- | --- | --- | --- |
| CC(C)C(=Nc1cc(F)cc(F)c1)OCc1cccc(Oc2ccccc2)c1 [Compound 55] | > 2.5 µg | 0.004% | > 100 µg | 0.0005% | 0.0017% | 0.006% | 0.06% | – | – |
| CC(C)C(=Nc1ccc(F)c(Cl)c1)OCc1cccc(Oc2ccccc2)c1 [Compound 81] | > 0.5 µg | 0.0009% | 4 µg | 0.0003% | 0.0006% | 0.003% | 0.007% | 0.005% | – |
| CC(C)C(=Nc1ccc(F)c(Cl)c1)OCc1ccc(F)c(Oc2ccccc2)c1 [Compound 82] | 0.086 µg | 0.0008% | 2.5 µg | 0.0001% | 0.00018% | 0.0025% | 0.006% | – | – |
| CC(C)C(=Nc1ccc(F)c(Cl)c1)OCc1cccc(Oc2ccc(F)cc2)c1 [Compound 89] | > 2.5 µg | 0.0005% | 5 µg | 0.001% | 0.00003% | 0.009% | 0.04% | 0.005% | – |
| CC(C)C(=Nc1ccc2c(c1)OCO2)OCc1cccc(Oc2ccccc2)c1 [Compound 180] | > 2.5 µg | 0.003% | 2 µg | 0.0015% | 0.0004% | 0.005% | 0.03% | 0.008% | – |
| CC(C)C(=Nc1ccc(F)c(Cl)c1)OCc1ccc(F)c(Oc2ccc(F)cc2)c1 [Compound 216] | 0.067 µg | 0.00018% | 2 µg | 0.00025% | 0.000007% | 0.0007% | 0.005% | 0.0017% | – |
| CC(C)C(=Nc1ccc(F)c(Cl)c1)OCc1cccc(Oc2ccc(Cl)cc2)c1 [Compound 239] | > 2.5 µg | 0.0005% | 14 µg | 0.002% | 0.00015% | 0.005% | 0.025% | 0.006% | – |
| CC(C)C(=Nc1ccc(F)c(Cl)c1)OCc1ccc(F)c(Oc2ccc(Cl)cc2)c1 [Compound 267] | 0.11 µg | 0.0003% | 8.4 µg | 0.002% | 0.00008% | 0.0012% | 0.015% | 0.0027% | – |
| CC(C)C(=Nc1ccc(Cl)cc1)OCc1cccc(Oc2ccc(Cl)cc2)c1 [Compound 269] | > 2.5 µg | 0.001% | 25 µg | 0.003% | 0.0003% | 0.0024% | 0.04% | > 0.01% | – |
| CC(C)C(=Nc1ccc(F)c(Br)c1)OCc1ccc(F)c(Oc2ccc(F)cc2)c1 [Compound 273] | > 2.5 µg | 0.00025% | 7 µg | 0.0003% | 0.000018% | 0.0017% | 0.015% | 0.004% | – |
| CC(C)C(=Nc1ccc(F)c(C(F)(F)F)c1)OCc1ccc(F)c(Oc2ccc(F)cc2)c1 [Compound 277] | 0.065 µg | 0.0005% | 4 µg | 0.0003% | 0.00001% | 0.005% | 0.013% | > 0.01% | – |
| CC(C)C(=Nc1ccc(F)c(F)c1)OCc1ccc(F)c(Oc2ccc(F)cc2)c1 [Compound 278] | 0.085 µg | 0.00026% | 3 µg | 0.0003% | 0.00002% | 0.0012% | 0.008% | 0.0063% | – |
| CC(C)C(=Nc1ccc2c(c1)OC(F)(F)O2)OCc1ccc(F)c(Oc2ccccc2)c1 [Compound 285] | 0.13 µg | 0.00017% | 36 µg | – | 0.000075% | 0.0006% | 0.005% | 0.005% | – |
| CC(C)C(=Nc1ccc(OC(F)(F)F)cc1)OCc1ccc(F)c(Oc2ccc(F)cc2)c1 [Compound 286] | 0.09 µg | 0.00017% | 34 µg | 0.0006% | 0.000024% | 0.0004% | 0.005% | 0.0039% | – |
| CC(C)C(=Nc1ccc(OC(F)(F)F)cc1)OCc1ccc(F)c(Oc2ccc(Cl)cc2)c1 [Compound 323] | 0.16 µg | 0.00065% | > 100 µg | 0.05% | 0.0006% | 0.0025% | 0.045% | 0.0075% | – |
| CC(C)C(=Nc1ccc(OC(F)(F)F)c(Cl)c1)OCc1cc(F)cc(Oc2ccc(F)cc2)c1 [Compound 328] | – | – | > 100 µg | – | 0.03% | – | > 0.1% | – | > 0.05% |
| CC(C)C(=Nc1ccc(F)c(F)c1)OCc1ccc(F)c(Oc2ccccc2)c1 [Compound 336] | > 2.5 µg | 0.0005% | 3.6 µg | – | 0.00017% | 0.001% | 0.02% | 0.0091% | – |
| CC(C)C(=Nc1ccc(C(F)(F)F)cc1)OCc1ccc(F)c(Oc2ccccc2)c1 [Compound 337] | 0.067 µg | 0.0005% | 21 µg | – | 0.0007% | 0.0005% | 0.008% | 0.0053% | – |
| CC(C)C(=Nc1ccc(F)c(F)c1F)OCc1ccc(F)c(Oc2ccc(F)cc2)c1 [Compound 349] | > 2.5 µg | 0.0004% | 4.9 µg | – | 0.00007% | > 0.1% | > 0.1% | > 0.01% | – |
| CC(C)C(=Nc1ccc(F)c(Cl)c1F)OCc1cccc(Oc2ccc(F)cc2)c1 [Compound 352] | > 2.5 µg | 0.0004% | 4.6 µg | 0.0004% | 0.000065% | > 0.1% | > 0.1% | 0.0075% | – |
